Results: US9540358B2, “Tricyclic compounds as anticancer agents” (ICAHN SCHOOL OF MEDICINE AT MOUNT SINAI, priority 2011, dated 2017)

What was measured:
Assay type in all cases: cell-based
naïve CD4 T cells = assay: Treg induction from naïve CD4 T cells (Foxp3 expression); conditions: 3 days, 2 ng/mL TGFβ
Procedure: Example 30 has been tested for its ability to induce Treg from naïve CD4 T cells. […] Fifty thousand CD4 naïve cells (CD62Lhi, CD25 low, CD4 positive) were incubated with 2 ng/mL TGFβ, 1 ug/mL anti-CD3, 100 ng/mL IL-2, 50000 APCs per well and the compounds 10 μM, 5 μM and 2.5 μM concentrations. The cells were incubated for 3 days and then stained for CD4 and Foxp3 expression. Results were expressed as fold increase over the % induced in control (DMSO) wells (typically 20-25% Foxp3+). AKTi, a small molecule AKT inhibitor, was used as a positive control; it induced about a 4-fold increase. […] The effects of Example 30 on iTreg induction are amplified as the TGFβ concentration decreases.

H1650 lung cancer cells = assay: Cell viability assay (MTT, IC50 determination); conditions: MTT; for IC50: Homo sapiens, NCI-H1650, 48 hours after drug treatment; for IC50 (Cell Viability Data): 48 hours after drug treatment
Procedure: (§1) 89(22): p. […] H1650 lung cancer cells were plated at 150,000 cells per well in a 12 well plate. Twenty-four hours after plating, cells were treated as described with increasing concentrations of drug and control. Forty-eight hours after drug treatment, cells were treated with 100 μL of 3-(4,5-Dimethylthiazol-2-yl)-2,5-diphenyltetrazolium bromide (MTT) and incubated for 2 hours at 37 C. The MTT solution was subsequently replaced with 300 μL of n-propyl alcohol and re-aliquoted to a 96 well plates. Spectrophotometric analysis of each solution was performed using a 96 well plate reader at 600 nm in triplicate.

A549luc cells = assay: Colony formation (clonogenic) assay, A549luc; conditions: 7 days
Procedure: (§2) Protocol for clonogenic assay follows Sangodkar et al. J Clin Invest 2012; 122:2637-51.
(§3) Cell culture and staining: For both A549luc and H292 cells, 500 cells were seeded into each well of a 6-well plate and allowed to attach for 24 hours before drug treatment. The following day, cells were treated with either the appropriate dose of drug or an equivalent volume of DMSO (two replicates were treated for each condition). For each condition, depleted media was replaced with fresh media containing the equivalent drug dose four days after initial treatment. Cells were harvested either 7 (A549luc) or 8 (H292) days after initial treatment. Briefly, media was aspirated from each well and the cells were washed twice with ice-cold PBS, then plates were allowed to dry at room temperature for 4 hours. Cells were fixed for one hour in a fixing solution consisting of 10% methanol and 10% glacial acetic acid in distilled water, then stained overnight in 1% (w/v) crystal violet dissolved in methanol. The next day, staining solution was aspirated from the wells and plates were washed gently with distilled water to remove excess stain before colony counting. Colonies were imaged on a ChemiDoc XRS+ (Bio-Rad) and images were exported as 8-bit TIFF files. Colonies were counted using the Colony Counter plugin in ImageJ, with colony size defined as between 4 and 400 square pixels, and minimum circularity set at 0.6. Duplicate wells were averaged to obtain a single value for each condition. Results (number of colonies) for A549luc cells are shown in Table 2 and results (number of colonies) for H292 cells are shown in Table 3: […]

H292 cells = assay: Colony formation (clonogenic) assay, H292; conditions: 8 days
Procedure: as §2, §3

[1] = Cell viability assay (MTT, IC50 determination); conditions: human, H1650 lung cancer cells
Procedure: as §1

**Q.** For `O=S(=O)(NCCN1c2ccccc2Sc2ccc(Cl)cc21)c1ccc(Cl)cc1` [Example 27, 4-chloro-N-(2-(2-chloro-10H-phenothiazin-10-yl)ethyl)benzenesulfonamide], which “fold increase in iTreg over control (DMSO) wells” value (naïve CD4 T cells; at 5 μM) is on record?
**A.** Its value is 2 fold.

**Q.** What about the IC50 (H1650 lung cancer cells) of the same compound?
**A.** The IC50 was 20 µM.

**Q.** With `O=S(=O)(NCC(O)CN1c2ccccc2CCc2ccccc21)c1ccc(OC(F)(F)F)cc1` (centres unmarked) [Example 60, 4-Trifluoromethoxy-N-(3-(10,11-dihydro-5H-dibenzo[b,f]azepin-5-yl)-2-hydroxypropyl)benzenesulfonamide] as the compound, how does the number of colonies (A549luc cells; 5 μM) read?
**A.** Its number of colonies is 126.5.

**Q.** What about the number of colonies (A549luc cells; 7.5 μM) of the same compound?
**A.** The number of colonies was 118.5.

**Q.** What about the number of colonies (A549luc cells; 10 μM) of the same compound?
**A.** Its number of colonies is 56.

**Q.** What about the IC50 (H1650 lung cancer cells) of the same compound?
**A.** Its IC50 is ~15 µM.

**Q.** What about the number of colonies (H292 cells; 5 μM) of the same compound?
**A.** The number of colonies was 107.

**Q.** And the number of colonies (H292 cells; 7.5 μM)?
**A.** Its number of colonies is 105.

**Q.** What about the number of colonies (H292 cells; 10 μM) of the same compound?
**A.** Its number of colonies is 42.

**Q.** With `O=S(=O)(NCCCN1c2ccccc2CCc2ccc(Cl)cc21)c1cnc(Cl)c(Br)c1` [Example 63, 5-Bromo-6-chloro-N-(3-(3-chloro-10,11-dihydro-5H-dibenzo[b,f]azepin-5-yl)propyl)pyridine-3-sulfonamide] as the compound, how does the viability at 48 h, 20 µM ([1]; @ 20 μM) read?
**A.** The viability at 48 h, 20 µM was 65%.

**Q.** With `N#Cc1ccc(S(=O)(=O)NCCC=C2c3ccccc3CCc3ccccc32)cc1` [Example 71, N-(3-(10,11-dihydro-5H-dibenzo[a,d][7]annulen-5-ylidene)propyl)-4-cyanobenzenesulfonamide] as the compound, how does the IC50 (H1650 lung cancer cells) read?
**A.** Its IC50 is 25 µM.

**Q.** For `O=S(=O)(NCCC=C1c2ccccc2CCc2ccccc21)c1ccc(F)cc1` [Example 72, N-(3-(10,11-dihydro-5H-dibenzo[a,d][7]annulen-5-ylidene)propyl)-4-fluorobenzenesulfonamide], which IC50 (H1650 lung cancer cells) is on record?
**A.** Its IC50 is 20 µM.

**Q.** For `O=S(=O)(NC1CCCC(N2c3ccccc3CCc3ccccc32)C1)c1ccc(OC(F)(F)F)cc1` (centres unmarked) [Example 73, N-(3-(10,11-dihydro-5H-dibenzo[b,f]azepin-5-yl)cyclohexyl)-4-(trifluoromethoxy)benzenesulfonamide], which number of colonies (A549luc cells; 5 μM) is on record?
**A.** The number of colonies was 2.

**Q.** What about the number of colonies (A549luc cells; 7.5 μM) of the same compound?
**A.** Its number of colonies is 0.

**Q.** What about the number of colonies (A549luc cells; 10 μM) of the same compound?
**A.** Its number of colonies is 0.

**Q.** And the number of colonies (H292 cells; 5 μM)?
**A.** The number of colonies was 40.5.

**Q.** And the number of colonies (H292 cells; 7.5 μM)?
**A.** Its number of colonies is 16.5.

**Q.** What about the number of colonies (H292 cells; 10 μM) of the same compound?
**A.** Its number of colonies is 7.

**Q.** Which results are given for `O=S(=O)(NC[C@@H](O)CN1c2ccccc2CCc2ccccc21)c1ccc(OC(F)(F)F)cc1` [Example 74, (S)—N-(3-(10,11-dihydro-5H-dibenzo[b,f]azepin-5-yl)-2-hydroxypropyl)-4-(trifluoromethoxy)benzenesulfonamide]?
**A.** number of colonies (A549luc cells; 5 μM): 135.5; number of colonies (A549luc cells; 7.5 μM): 118.5; number of colonies (A549luc cells; 10 μM): 96; IC50 (H1650 lung cancer cells): ~15 µM; number of colonies (H292 cells; 5 μM): 85.5; number of colonies (H292 cells; 7.5 μM): 65.5; number of colonies (H292 cells; 10 μM): 46.5

**Q.** Which results are given for `O=S(=O)(NC[C@H](O)CN1c2ccccc2CCc2ccccc21)c1ccc(OC(F)(F)F)cc1` [Example 75, (R)—N-(3-(10,11-dihydro-5H-dibenzo[b,f]azepin-5-yl)-2-hydroxypropyl)-4-(trifluoromethoxy)benzenesulfonamide]?
**A.** number of colonies (A549luc cells; 5 μM): 133.5; number of colonies (A549luc cells; 7.5 μM): 105; number of colonies (A549luc cells; 10 μM): 63.5; IC50 (H1650 lung cancer cells): ~15 µM; number of colonies (H292 cells; 5 μM): 109.5; number of colonies (H292 cells; 7.5 μM): 80; number of colonies (H292 cells; 10 μM): 47

**Q.** Which IC50 (H1650 lung cancer cells) does the source give for `O=S(=O)(NC1CCC(N2c3ccccc3CCc3ccccc32)C1)c1ccc(OC(F)(F)F)cc1` (centres unmarked) [Example 76, N-(3-(10,11-dihydro-5H-dibenzo[b,f]azepin-5-yl)cyclopentyl)-4-(trifluoromethoxy)benzenesulfonamide] here?
**A.** The IC50 was 20 µM.

**Q.** Which IC50 (H1650 lung cancer cells) does the source give for `O=S(=O)(NC1CCCC(=C2c3ccccc3CCc3ccccc32)C1)c1ccc(OC(F)(F)F)cc1` (centres unmarked) [Example 77, N-(3-(10,11-dihydro-5H-dibenzo[a,d][7]annulen-5-ylidene)cyclohexyl)-4-(trifluoromethoxy)benzenesulfonamide] here?
**A.** The IC50 was 15 µM.

**Q.** Which IC50 (H1650 lung cancer cells) does the source give for `O=S(=O)(NC1CCCC(=C2c3ccccc3CCc3ccccc32)C1)c1ccc(Cl)cc1` (centres unmarked) [Example 78, N-(3-(10,11-dihydro-5H-dibenzo[a,d][7]annulen-5-ylidene)cyclohexyl)-4-chlorobenzenesulfonamide] here?
**A.** Its IC50 is 15 µM.

**Q.** Which IC50 (H1650 lung cancer cells) does the source give for `O=S(=O)(NC1CCC(=C2c3ccccc3CCc3ccccc32)CC1)c1ccc(OC(F)(F)F)cc1` (centres unmarked) [Example 79, N-(4-(10,11-dihydro-5H-dibenzo[a,d][7]annulen-5-ylidene)cyclohexyl)-4-(trifluoromethoxy)benzenesulfonamide] here?
**A.** Its IC50 is ~20 µM.

**Q.** Which IC50 (H1650 lung cancer cells) does the source give for `O=S(=O)(NC1CCC(=C2c3ccccc3CCc3ccccc32)CC1)c1ccc(Cl)cc1` (centres unmarked) [Example 80, N-(4-(10,11-dihydro-5H-dibenzo[a,d][7]annulen-5-ylidene)cyclohexyl)-4-chlorobenzenesulfonamide] here?
**A.** Its IC50 is ~20 µM.

**Q.** For `O=S(=O)(NCCCN1c2ccccc2CCc2ccccc21)c1cnc(Cl)c(Br)c1` [Example 81, 5-bromo-6-chloro-N-(3-(10,11-dihydro-5H-dibenzo[V]azepin-5-yl)propyl)pyridine-3-sulfonamide], which “IC50 (Cell Viability Data)” value (H1650 lung cancer cells) is on record?
**A.** The value was “INACTIVE”.

**Q.** With `CC(=O)Nc1nc(C)c(S(=O)(=O)NCCCN2c3ccccc3CCc3ccccc32)s1` [Example 82, N-(5-(N-(3-(10,11-dihydro-5H-dibenzo[b,f]azepin-5-yl)propyl)sulfamoyl)-4-methylthiazol-2-yl)acetamide] as the compound, how does the “IC50 (Cell Viability Data)” value (H1650 lung cancer cells) read?
**A.** The value was “INACTIVE”.

**Q.** With `COC(=O)NCCN1c2ccccc2Sc2ccc(Cl)cc21` [Example 83] as the compound, how does the “IC50 (Cell Viability Data)” value (H1650 lung cancer cells) read?
**A.** The value was “INACTIVE”.

**Q.** With `O=S(=O)(NCC(O)CN1c2ccccc2Sc2ccccc21)c1ccc(OC(F)(F)F)cc1` (centres unmarked) [Example 84] as the compound, how does the IC50 (H1650 lung cancer cells) read?
**A.** The IC50 was ~25 µM.

**Q.** With `O=S(=O)(NCC(O)CN1c2ccccc2Sc2ccccc21)c1ccc(Cl)cc1` (centres unmarked) [Example 85] as the compound, how does the IC50 (H1650 lung cancer cells) read?
**A.** The IC50 was ~15 µM.

**Q.** Which “IC50 (Cell Viability Data)” value (H1650 lung cancer cells) does the source give for `O=S(=O)(NCCCN1c2ccccc2CCc2ccc(Cl)cc21)c1ccccc1OC(F)(F)F` [Example 86] here?
**A.** The value was “INACTIVE”.

**Q.** Which IC50 (H1650 lung cancer cells) does the source give for `CS(=O)(=O)Nc1ccc2c(c1)N(CCCNS(=O)(=O)c1ccc(OC(F)(F)F)cc1)c1ccccc1CC2` [Example 87] here?
**A.** Its IC50 is ~15 µM.

**Q.** For `CC(=O)Nc1ccc(S(=O)(=O)NCCCN2c3ccccc3CCc3ccc(Cl)cc32)cc1` [Example 88], which IC50 (H1650 lung cancer cells) is on record?
**A.** The IC50 was ~20 µM.

**Q.** With `O=S(=O)(NCCCN1c2ccccc2CCc2ccccc21)c1cccnc1` [Example 89] as the compound, how does the viability at 48 h, 40 µM ([1]; @ 40 μM) read?
**A.** Its viability at 48 h, 40 µM is 50%.

**Q.** Which “fold increase in iTreg (Foxp3+) over control (DMSO) wells” value (naïve CD4 T cells; control compounds, concentration not given) does the source give for `O=C(CCCN1CCC(O)(c2ccc(Cl)cc2)CC1)c1ccc(F)cc1` [Haloperidol, reference compound] here?
**A.** The value was “did not induce a statistically significant increase”.
